# Assay results taken from patent US20110218188A1, “SUBSTITUTED (PYRIDYL)-AZINYLAMINE DERIVATIVES AS FUNGICIDES” (priority 2008, published 2011).
# Assay: Measurement of logP values by HPLC on reversed phase columns (EEC directive 79/831 Annex V.A8)
# Type: physicochemical
# Conditions: pH 2.3
row,logP [b],Compound
1,3.13[b],CCCN(CCC#N)C(=O)c1cc(-c2ncnc(Nc3cccc(Cl)c3)n2)ccn1 [B182]

# Same assay, conditions: pH 2.7
row,logP,Compound
1,5.63,CC(=NOCC(C)C)c1cc(-c2ncnc(Nc3cccc(Cl)c3)n2)ccn1 (mixture of isomers) [B44]
2,6.19,CCC(=NOCC(C)C)c1cc(-c2ncnc(Nc3cccc(Cl)c3)n2)ccn1 (mixture of isomers) [B65]
3,2.8,CC(=NO)c1cc(-c2ncnc(Nc3cccc(Cl)c3)n2)ccn1 (mixture of isomers) [Example B74]
4,3.21,COCC(C)NC(=O)c1cc(-c2ncnc(Nc3cccc(Cl)c3)n2)ccn1 (stereo not drawn) [B51]
5,3.39,COC[C@H](C)NC(=O)c1cc(-c2ncnc(Nc3cccc(Cl)c3)n2)ccn1 [B52]
6,2.84,COCCNC(=O)c1cc(-c2ncnc(Nc3cccc(Cl)c3)n2)ccn1 [B59]
7,4.3,CC(C)CCNC(=O)c1cc(-c2ncnc(Nc3cccc(Cl)c3)n2)ccn1 [B61]
8,4.3,CC(C)C(C)NC(=O)c1cc(-c2ncnc(Nc3cccc(Cl)c3)n2)ccn1 (stereo not drawn) [B62]
9,4.22,CCC(CC)NC(=O)c1cc(-c2ncnc(Nc3cccc(Cl)c3)n2)ccn1 [B63]
10,1.72,CC(CN(C)C)NC(=O)c1cc(-c2ncnc(Nc3cccc(Cl)c3)n2)ccn1 (stereo not drawn) [B66]
11,4.35,CCCCCNC(=O)c1cc(-c2ncnc(Nc3cccc(Cl)c3)n2)ccn1 [B67]
12,4.03,O=C(NC1CCCC1)c1cc(-c2ncnc(Nc3cccc(Cl)c3)n2)ccn1 [B71]
13,2.86,COC(=O)NN=C(C)c1cc(-c2ncnc(Nc3cccc(Cl)c3)n2)ccn1 [B83]
14,3.39,COCC(COC)NC(=O)c1cc(-c2ncnc(Nc3cccc(Cl)c3)n2)ccn1 [B86]
15,3.15,COCCCNC(=O)c1cc(-c2ncnc(Nc3cccc(Cl)c3)n2)ccn1 [B88]
16,3.8,CCC(COC)NC(=O)c1cc(-c2ncnc(Nc3cccc(Cl)c3)n2)ccn1 (stereo not drawn) [B89]
17,3.17,CCNC(=O)c1cc(-c2ncnc(Nc3cccc(Cl)c3)n2)ccn1 [B92]
18,4.39,CC(C)(C)NC(=O)c1cc(-c2ncnc(Nc3cccc(Cl)c3)n2)ccn1 [B98]
19,3.73,O=C(NCC1CC1)c1cc(-c2ncnc(Nc3cccc(Cl)c3)n2)ccn1 [B99]
20,3.62,CCCNC(=O)c1cc(-c2ncnc(Nc3cccc(Cl)c3)n2)ccn1 [B103]
21,3.69,CC(C)C(=O)O/N=C(/N)c1cc(-c2ncnc(Nc3cccc(Cl)c3)n2)ccn1 [B107]
22,2.6,O=C(NC1COC1)c1cc(-c2ncnc(Nc3cccc(Cl)c3)n2)ccn1 [B112]
23,3.67,O=C(NCC(F)(F)F)c1cc(-c2ncnc(Nc3cccc(Cl)c3)n2)ccn1 [B117]
24,3.73,O=C(NCCC(F)(F)F)c1cc(-c2ncnc(Nc3cccc(Cl)c3)n2)ccn1 [B121]
25,2.26,O=CNCCCNC(=O)c1cc(-c2ncnc(Nc3cccc(Cl)c3)n2)ccn1 [B178]
26,3.73,CC(C)NC(=O)c1cc(-c2ncnc(Nc3ccc(F)c(Cl)c3)n2)ccn1 [B196]

# Further lines, the compound ahead of its results:
row,Compound,logP
1,C#CC(C)ON=C(C)c1cc(-c2ncnc(Nc3cccc(Cl)c3)n2)ccn1 (mixture of isomers) [B30],4.47
2,CCON=C(C)c1cc(-c2ncnc(Nc3cccc(Cl)c3)n2)ccn1 (mixture of isomers) [B31],4.7
3,CC(=NOCCN(C)C)c1cc(-c2ncnc(Nc3cccc(Cl)c3)n2)ccn1 (mixture of isomers) [B32],1.99
4,CCCC#CCON=C(C)c1cc(-c2ncnc(Nc3cccc(Cl)c3)n2)ccn1 (mixture of isomers) [B35],5.16
5,CC(=NOCc1c(Cl)cccc1Cl)c1cc(-c2ncnc(Nc3cccc(Cl)c3)n2)ccn1 (mixture of isomers) [B39],6.02
6,C#CC(C)ON=C(CC)c1cc(-c2ncnc(Nc3cccc(Cl)c3)n2)ccn1 (mixture of isomers) [B42],4.87
7,CCC(=NOC1CCCC1)c1cc(-c2ncnc(Nc3cccc(Cl)c3)n2)ccn1 (mixture of isomers) [B47],6.39
8,CCC(=NOCCN(C)C)c1cc(-c2ncnc(Nc3cccc(Cl)c3)n2)ccn1 (mixture of isomers) [B49],2.06
9,CC(=NOCc1ccccc1)c1cc(-c2ncnc(Nc3cccc(Cl)c3)n2)ccn1 (mixture of isomers) [B50],5.18
10,CC#CCON=C(CC)c1cc(-c2ncnc(Nc3cccc(Cl)c3)n2)ccn1 (mixture of isomers) [B53],4.91
11,CCC(=NOCC(F)(F)F)c1cc(-c2ncnc(Nc3cccc(Cl)c3)n2)ccn1 (mixture of isomers) [B58],5.39
12,COc1ccc(CON=C(C)c2cc(-c3ncnc(Nc4cccc(Cl)c4)n3)ccn2)cc1 (mixture of isomers) [B60],4.96
13,CCC(=NOCc1ccc(OC)cc1)c1cc(-c2ncnc(Nc3cccc(Cl)c3)n2)ccn1 (mixture of isomers) [B68],5.46
14,CCC(=NOCc1c(Cl)cccc1Cl)c1cc(-c2ncnc(Nc3cccc(Cl)c3)n2)ccn1 (mixture of isomers) [B69],6.53
15,CCC(=NOCc1ccc(Cl)cc1)c1cc(-c2ncnc(Nc3cccc(Cl)c3)n2)ccn1 (mixture of isomers) [B70],6.22
16,CCC(=NOCc1ccccc1)c1cc(-c2ncnc(Nc3cccc(Cl)c3)n2)ccn1 (mixture of isomers) [B72],5.65
17,CC(=NOCC(F)(F)F)c1cc(-c2ncnc(Nc3cccc(Cl)c3)n2)ccn1 (mixture of isomers) [B73],4.58
18,CCC(=NOC(C1CC1)C1CC1)c1cc(-c2ncnc(Nc3cccc(Cl)c3)n2)ccn1 (mixture of isomers) [B79],6.59
19,C#CCON=C(CC)c1cc(-c2ncnc(Nc3cccc(Cl)c3)n2)ccn1 (mixture of isomers) [B80],4.73
20,CCC(=NOC(C)C1CC1)c1cc(-c2ncnc(Nc3cccc(Cl)c3)n2)ccn1 (mixture of isomers) [B84],6.24
21,C=CCON=C(C)c1cc(-c2ncnc(Nc3cccc(Cl)c3)n2)ccn1 (mixture of isomers) [Example B29],4.7
22,CC(=NOCC1CC1)c1cc(-c2ncnc(Nc3cccc(Cl)c3)n2)ccn1 (mixture of isomers) [Example B34],4.94
23,CC#CCON=C(C)c1cc(-c2ncnc(Nc3cccc(Cl)c3)n2)ccn1 (mixture of isomers) [Example B36],4.41
24,C#CCON=C(C)c1cc(-c2ncnc(Nc3cccc(Cl)c3)n2)ccn1 (mixture of isomers) [Example B37],3.98
25,CC(=NOC1CCCC1)c1cc(-c2ncnc(Nc3cccc(Cl)c3)n2)ccn1 (mixture of isomers) [Example B38],5.79
26,CCON=C(CC)c1cc(-c2ncnc(Nc3cccc(Cl)c3)n2)ccn1 (mixture of isomers) [Example B40],5.1
27,C=CCON=C(CC)c1cc(-c2ncnc(Nc3cccc(Cl)c3)n2)ccn1 (mixture of isomers) [Example B41],5.14

row,Compound,logP
1,CCCON=C(C)c1cc(-c2ncnc(Nc3cccc(Cl)c3)n2)ccn1 (mixture of isomers) [Example B43],5.13
2,CCCC#CCON=C(CC)c1cc(-c2ncnc(Nc3cccc(Cl)c3)n2)ccn1 (mixture of isomers) [Example B46],5.81
3,CC(=NOC(C1CC1)C1CC1)c1cc(-c2ncnc(Nc3cccc(Cl)c3)n2)ccn1 (mixture of isomers) [Example B48],5.64
4,CCC(=NOCC1CC1)c1cc(-c2ncnc(Nc3cccc(Cl)c3)n2)ccn1 (mixture of isomers) [Example B54],5.49
5,CCC(=NO)c1cc(-c2ncnc(Nc3cccc(Cl)c3)n2)ccn1 (mixture of isomers) [Example B64],3.24
6,CCC(=NOC)c1cc(-c2ncnc(Nc3cccc(Cl)c3)n2)ccn1 (mixture of isomers) [Example B85],4.81
7,O=C(NC1CCCCC1)c1cc(-c2ncnc(Nc3cccc(Cl)c3)n2)ccn1 [B56],4.46
8,CC(=NNc1ncc(C(F)(F)F)cc1Cl)c1cc(-c2ncnc(Nc3cccc(Cl)c3)n2)ccn1 [B90],5.46
9,O=C(NCCCCN1CCCC1=O)c1cc(-c2ncnc(Nc3cccc(Cl)c3)n2)ccn1 [B96],2.73
10,O=C(NCCCN1CCCC1=O)c1cc(-c2ncnc(Nc3cccc(Cl)c3)n2)ccn1 [B100],2.63
11,O=C(NC1CCS(=O)(=O)C1)c1cc(-c2ncnc(Nc3cccc(Cl)c3)n2)ccn1 (stereo not drawn) [B101],2.66
12,CCCC(=O)O/N=C(/N)c1cc(-c2ncnc(Nc3cccc(Cl)c3)n2)ccn1 [B106],3.8
13,CCC(=O)O/N=C(/N)c1cc(-c2ncnc(Nc3cccc(Cl)c3)n2)ccn1 [B108],3.33
14,CC(=O)O/N=C(/N)c1cc(-c2ncnc(Nc3cccc(Cl)c3)n2)ccn1 [B109],2.95
15,O=C(c1cc(-c2ncnc(Nc3cccc(Cl)c3)n2)ccn1)N1CCC(C(F)(F)F)CC1 [B120],3.55
16,CCN1CCCC(NC(=O)c2cc(-c3ncnc(Nc4cccc(Cl)c4)n3)ccn2)C1 (stereo not drawn) [B122],1.82
17,CC1CN(C(=O)c2cc(-c3ncnc(Nc4cccc(Cl)c4)n3)ccn2)CC(C)O1 (stereo not drawn) [B154],2.92
18,O=C1CN(C(=O)c2cc(-c3ncnc(Nc4cccc(Cl)c4)n3)ccn2)CN1 [B168],2.15
19,CCCCCCN(CCCCCC)C(=O)c1cc(-c2ncnc(Nc3cccc(Cl)c3)n2)ccn1 [B174],6.69
20,CCCCN(CCCC)C(=O)c1cc(-c2ncnc(Nc3cccc(Cl)c3)n2)ccn1 [B175],4.75
21,O=C(c1cc(-c2ncnc(Nc3cccc(Cl)c3)n2)ccn1)N1CCSCC1 [B176],2.98
22,O=C(c1cc(-c2ncnc(Nc3cccc(Cl)c3)n2)ccn1)N1CCC(O)C1 (stereo not drawn) [B177],2.07
23,O=C(c1cc(-c2ncnc(Nc3ccc(F)c(Cl)c3)n2)ccn1)N1CCCC1 [B190],3
24,COCC(C)NC(=O)c1cc(-c2ncnc(Nc3ccc(F)c(Cl)c3)n2)ccn1 (stereo not drawn) [B191],3.48
25,COCCNC(=O)c1cc(-c2ncnc(Nc3ccc(F)c(Cl)c3)n2)ccn1 [B193],3.08
26,O=C(NCC1CC1)c1cc(-c2ncnc(Nc3ccc(F)c(Cl)c3)n2)ccn1 [B198],3.83
27,O=C(NC1CCC1)c1cc(-c2ncnc(Nc3ccc(F)c(Cl)c3)n2)ccn1 [B199],3.94
